# According to the supplement of paper PMC9265050, “Inhibition of RNA Binding in SND1 Increases the Levels of miR-1-3p and Sensitizes Cancer Cells to Navitoclax” (Cancers, 2022):
# Test system: SW480
# Assay: drug sensitivity score (DSS, integrated dose-response area); higher = more sensitive (stronger viability reduction); extreme values may be limits of the assay
# Method in brief: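 The drug sensitivity score is the integrated area under a fitted non-linear dose–response model. It was derived from SW480 cells with doxycycline-inducible control or SND1-targeting shRNA, induced with 0.1 µg/mL doxycycline for 7 days and plated at 1000 cells per well on 384-well plates of 525 commercially available small-molecule inhibitors at five concentrations. CellTiter-Glo measured viability after 72 h.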
# [1] = shRNA: SND1 shRNA1 (SND1 silenced)
# [2] = shRNA: SND1 shRNA2 (SND1 silenced)
# [3] = shRNA: control shRNA (non-targeting)
SMILES,drug sensitivity score [1],drug sensitivity score [2],drug sensitivity score [3]
CO[C@@H]1[C@H](N(C)C(=O)c2ccccc2)C[C@H]2O[C@]1(C)n1c3ccccc3c3c4c(c5c6ccccc6n2c5c31)C(=O)NC4 [Midostaurin],14.3 DSS,14.7 DSS,14.5 DSS
CNC(=O)c1nn(C)c2c1C(C)(C)Cc1cnc(Nc3ccc(N4CCN(C)CC4)cc3)nc1-2 [Milciclib],11.4 DSS,10.9 DSS,9.2 DSS
CO[C@@]12[C@H](COC(N)=O)C3=C(C(=O)C(C)=C(N)C3=O)N1C[C@@H]1N[C@@H]12 [Mitomycin C],2.7 DSS,2.1 DSS,1 DSS
Clc1ccc(C(c2ccccc2Cl)C(Cl)Cl)cc1 (stereo unspecified) [Mitotane],0 DSS,0 DSS,0 DSS
O=C1c2c(O)ccc(O)c2C(=O)c2c(NCCNCCO)ccc(NCCNCCO)c21 [Mitoxantrone],1.9 DSS,0.3 DSS,0.8 DSS
Nc1ccccc1NC(=O)c1ccc(CNc2nccc(-c3cccnc3)n2)cc1 [Mocetinostat],10.2 DSS,6.1 DSS,7.8 DSS
N#CCNC(=O)c1ccc(-c2ccnc(Nc3ccc(N4CCOCC4)cc3)n2)cc1 [Momelotinib],3.8 DSS,2.1 DSS,1.9 DSS
CC1(C)CNc2cc(NC(=O)c3cccnc3NCc3ccncc3)ccc21 [Motesanib],0 DSS,0.4 DSS,0 DSS
FC(F)(F)c1ccc(/C=C/c2nc(COc3ccc(CCCCn4ccnn4)cc3)co2)cc1 [Mubritinib],3.8 DSS,9.3 DSS,5.5 DSS
Cc1cc(OCc2nnc(SC3CCCC3)n2-c2cccnc2)ccc1-c1ccc(S(C)(=O)=O)cc1 [NMS-873],9.5 DSS,10.5 DSS,9 DSS
CCN1CCN(Cc2ccc(-c3cc4c(N[C@H](C)c5ccccc5)ncnc4[nH]3)cc2)CC1 [NVP-AEE788],1.5 DSS,1.3 DSS,2.8 DSS
CCN1CCN(c2ccc(Nc3cc(N(C)C(=O)Nc4c(Cl)c(OC)cc(OC)c4Cl)ncn3)cc2)CC1 [NVP-BGJ398],0 DSS,0 DSS,0 DSS
COc1ccc(-c2ccc3ncc4c(c3c2)n(-c2ccc(N3CCNCC3)c(C(F)(F)F)c2)c(=O)n4C)cn1 [NVP-BGT226],18.6 DSS,20.6 DSS,19 DSS
CNC(=O)c1ccc(-c2cnc3ncc(Cc4ccc5ncccc5c4)n3n2)cc1F [NVP-INC280],0 DSS,5.7 DSS,5.8 DSS
CC1(C)CCC(c2ccc(Cl)cc2)=C(CN2CCN(c3ccc(C(=O)NS(=O)(=O)c4ccc(N[C@H](CCN5CCOCC5)CSc5ccccc5)c(S(=O)(=O)C(F)(F)F)c4)cc3)CC2)C1 [Navitoclax],7.4 DSS,5.6 DSS,0 DSS
COc1nc(N)nc2c1ncn2[C@@H]1O[C@H](CO)[C@@H](O)[C@@H]1O [Nelarabine],0 DSS,0 DSS,0 DSS
CCOc1cc2ncc(C#N)c(Nc3ccc(OCc4ccccn4)c(Cl)c3)c2cc1NC(=O)/C=C/CN(C)C [Neratinib],3.9 DSS,4.3 DSS,4 DSS
Cc1cn(-c2cc(NC(=O)c3ccc(C)c(Nc4nccc(-c5cccnc5)n4)c3)cc(C(F)(F)F)c2)cn1 [Nilotinib],2.6 DSS,3.8 DSS,1.6 DSS
CC1(C)NC(=O)N(c2ccc([N+](=O)[O-])c(C(F)(F)F)c2)C1=O [Nilutamide],0 DSS,0 DSS,0 DSS
COC(=O)c1ccc2c(c1)NC(=O)/C2=C(\Nc1ccc(N(C)C(=O)CN2CCN(C)CC2)cc1)c1ccccc1 [Nintedanib],8.4 DSS,6.8 DSS,0 DSS
NC(=O)c1cccc2cn(-c3ccc([C@@H]4CCCNC4)cc3)nc12 [Niraparib],3.3 DSS,1.1 DSS,4.9 DSS
COc1ccc(C2=N[C@@H](c3ccc(Cl)cc3)[C@@H](c3ccc(Cl)cc3)N2C(=O)N2CCNC(=O)C2)c(OC(C)C)c1 [Nutlin-3],0 DSS,0 DSS,0.2 DSS
COc1cccc2cc(-c3nc([C@H]4CC[C@H](C(=O)O)CC4)n4ncnc(N)c34)[nH]c12 [OSI-027],5.4 DSS,7.1 DSS,2.5 DSS
O=C(Nc1ccc(OC(F)(F)F)cc1)c1sccc1NCc1ccnc2ccccc12 [OSI-930],1.8 DSS,6.5 DSS,6.3 DSS

SMILES,drug sensitivity score [1],drug sensitivity score [2],drug sensitivity score [3]
CC(=O)c1cnc2ccc(-c3cc(Cl)c(O)c(Cl)c3)nc2c1N[C@H]1CC[C@H](CN(C)C)CC1 [OTSSP167],9.8 DSS,8.7 DSS,10.6 DSS
Cc1sc2c(c1C)C(c1ccc(Cl)cc1)=N[C@@H](CC(=O)Nc1ccc(O)cc1)c1nnc(C)n1-2 [OTX015],1.9 DSS,0.8 DSS,0.7 DSS
COC1=CC(c2cc3ccccc3[nH]2)=N/C1=C\c1[nH]c(C)cc1C [Obatoclax],2.5 DSS,0 DSS,0.1 DSS
O=C(c1cc(Cc2n[nH]c(=O)c3ccccc23)ccc1F)N1CCN(C(=O)C2CC2)CC1 [Olaparib],2.7 DSS,0 DSS,0 DSS
COC(=O)C[C@](O)(CCCC(C)(C)O)C(=O)O[C@@H]1C(OC)=C[C@]23CCCN2CCc2cc4c(cc2[C@H]13)OCO4 [Omacetaxine],21.9 DSS,23.5 DSS,23.3 DSS
COc1ncc(-c2ccc3nccc(-c4ccnnc4)c3c2)cc1NS(=O)(=O)c1ccc(F)cc1F [Omipalisib],13.7 DSS,12.4 DSS,9.7 DSS
CC(C)c1cc(C(=O)N2Cc3ccc(CN4CCN(C)CC4)cc3C2)c(O)cc1O [Onalespib],11.3 DSS,9.4 DSS,13.8 DSS
COC[C@H](NC(=O)c1cnc(C)s1)C(=O)N[C@@H](COC)C(=O)N[C@@H](Cc1ccccc1)C(=O)[C@@]1(C)CO1 [Oprozomib],17.7 DSS,16.5 DSS,19 DSS
Cc1[nH]c(/C=C2\C(=O)Nc3ccccc32)c(C)c1CCC(=O)O [Orantinib],0 DSS,0 DSS,0.1 DSS
CNC(=O)c1ccc2cc([C@@]3(O)CCn4cncc43)ccc2c1 [Orteronel],0 DSS,0 DSS,0 DSS
C=CC(=O)Nc1cc(Nc2nccc(-c3cn(C)c4ccccc34)n2)c(OC)cc1N(C)CCN(C)C [Osimertinib],8.5 DSS,3.6 DSS,9.6 DSS
O=C(O)C(=O)O.[NH-][C@@H]1CCCC[C@H]1[NH-].[Pt+2] [Oxaliplatin],14 DSS,,16.7 DSS
C=CCc1cccc(/C=N/NC(=O)CN2CCN(Cc3ccccc3)CC2)c1O [PAC-1],6.8 DSS,6.3 DSS,7 DSS
O=C(Nc1cccnc1)N1CCC(Cc2cccc(Oc3ccc(C(F)(F)F)cn3)c2)CC1 [PF-3845],0.1 DSS,2.4 DSS,0.3 DSS
COc1ccccc1S(=O)(=O)Nc1ccc2c(c1)CN(C)C(=O)N2 [PFI-1],1.8 DSS,0.5 DSS,0.4 DSS
CN1CCN(c2cc(C(=O)Nc3ccc4c(c3)-c3c(c(C(N)=O)nn3-c3ccc(F)cc3)CC4)c(Cl)cn2)CC1 [PHA 408],5.3 DSS,,5.2 DSS
CCn1nnc2c(N3CCOCC3)nc(-c3ccc(NC(=O)Nc4ccc(C(=O)N5CCN(C)CC5)cc4)cc3)nc21 [PKI-402],6 DSS,6.6 DSS,8.2 DSS
O=C(Nc1cc(Cl)cc2c1[nH]c1cnccc12)c1cccnc1 [PS-1145],0.4 DSS,0 DSS,1.8 DSS
COc1cc(Br)c(Nc2nc(-c3c(C)nc4ncccn34)cs2)c(Br)c1 [PTC-209],6.7 DSS,2.2 DSS,7.1 DSS
CC(=O)O[C@H]1C(=O)[C@@]2(C)[C@H]([C@H](OC(=O)c3ccccc3)[C@]3(O)C[C@H](OC(=O)[C@H](O)[C@@H](NC(=O)c4ccccc4)c4ccccc4)C(C)=C1C3(C)C)[C@]1(OC(C)=O)CO[C@@H]1C[C@@H]2O [Paclitaxel],11.5 DSS,12.5 DSS,14.1 DSS
C1=N/C2=N/c3ccc(OCCN4CCCC4)c(c3)COC/C=C/COCc3cccc(c3)C(=C1)N2 [Pacritinib],9.6 DSS,,10 DSS
CC(=O)c1c(C)c2cnc(Nc3ccc(N4CCNCC4)cn3)nc2n(C2CCCC2)c1=O [Palbociclib],10.6 DSS,10.4 DSS,6.6 DSS
COc1ccc(COc2cc3oc(=O)c4cc(C(C)O)ccc4c3cc2OC)cc1 (stereo unspecified) [Palomid-529],0 DSS,0 DSS,1.7 DSS
Cc1[nH]c2ccccc2c1CCNCc1ccc(/C=C/C(=O)NO)cc1 [Panobinostat],19.9 DSS,19.2 DSS,17.4 DSS
